Results published in patent US20140072557A1, “MEDICINAL AGENT FOR SUPPRESSING MALIGNANT TUMOR METASTASIS” (priority 2011, published 2014).
Bridges are numbered along the chain shown (N, C = ends). Where no end group is shown, it is not given here.

Assays:
[1] = tested on: A549 cells; assay: EMT induced by TGF-β1 in A549 cells (morphology, quantitative RT-PCR); type: cell-based; conditions: final concentration 1 μM, A549 cells
Procedure: Using a 6-well dish, the A549 cells were cultured at 1×10^5 cells/well, and the culture medium was replaced with DMEM culture medium free from FBS the next day. After 24 hours of culture, the cells were used in the following experiment.
An ANP group (ANP solution was added (final concentration: 1 μM)) and a control group (the same amount of physiological saline was added) were prepared, and after 2 hours from the addition, TGF-β1 was added so that the final concentration would be 0.125, 0.25, 0.5, 1.0, and 2.0 ng/mL. After 24 hours had passed, the morphological change in the cells was observed under a microscope and photographed (FIG. 3).
Then, total RNA was collected using TRIZOL total RNA isolation reagent (made by Invitrogen), cDNA was synthesized using reverse transcriptase, and the mRNA levels of E-cadherin, N-cadherin, VEGF-A, PDGF-B, TNF-α, and IL-6 were measured by quantitative RT-PCR. It is known that in EMT, the expression of E-cadherin decreases while the expression of N-cadherin increases. The expression ratio of N-cadherin/E-cadherin is considered to be useful as an indicator of the degree of EMT.

[2] = biological target: T1, natriuretic peptide receptor GC-B (Homo sapiens, UniProt P20594); conditions: Furuya et al. 1992; cited from earlier work
T1 sequence (P20594 23-1047): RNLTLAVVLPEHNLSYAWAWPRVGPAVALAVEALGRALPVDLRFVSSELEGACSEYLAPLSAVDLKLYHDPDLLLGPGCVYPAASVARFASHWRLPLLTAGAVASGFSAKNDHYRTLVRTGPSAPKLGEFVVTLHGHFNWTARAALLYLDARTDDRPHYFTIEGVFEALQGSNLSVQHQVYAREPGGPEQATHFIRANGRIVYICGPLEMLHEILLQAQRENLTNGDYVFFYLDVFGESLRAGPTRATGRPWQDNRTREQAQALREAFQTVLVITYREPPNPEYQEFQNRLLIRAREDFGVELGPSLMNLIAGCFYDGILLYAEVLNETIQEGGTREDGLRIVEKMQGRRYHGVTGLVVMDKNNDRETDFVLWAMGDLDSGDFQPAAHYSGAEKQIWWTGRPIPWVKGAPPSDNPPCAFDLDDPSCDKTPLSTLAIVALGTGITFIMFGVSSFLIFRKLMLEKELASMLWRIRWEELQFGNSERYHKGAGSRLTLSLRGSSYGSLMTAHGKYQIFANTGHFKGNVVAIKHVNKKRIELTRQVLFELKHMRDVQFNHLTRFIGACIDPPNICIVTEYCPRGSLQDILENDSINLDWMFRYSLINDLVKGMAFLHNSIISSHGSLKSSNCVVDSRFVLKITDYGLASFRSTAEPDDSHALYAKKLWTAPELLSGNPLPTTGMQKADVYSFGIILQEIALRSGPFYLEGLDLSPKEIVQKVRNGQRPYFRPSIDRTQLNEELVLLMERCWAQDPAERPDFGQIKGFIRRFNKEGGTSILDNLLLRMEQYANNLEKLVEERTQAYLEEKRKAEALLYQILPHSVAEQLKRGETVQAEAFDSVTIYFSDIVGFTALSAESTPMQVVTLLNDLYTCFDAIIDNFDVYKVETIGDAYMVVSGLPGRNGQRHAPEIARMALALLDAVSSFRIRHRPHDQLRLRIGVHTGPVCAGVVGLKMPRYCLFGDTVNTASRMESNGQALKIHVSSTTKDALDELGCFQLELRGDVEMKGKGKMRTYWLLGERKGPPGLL

[3] = tested on: A549 cells; assay: Intracellular cGMP level in A549 cells on natriuretic peptide stimulus; type: cell-based; conditions: 1×10^−11 M to 1×10^−6 M, 10 minutes
Procedure: The A549 cells were cultured in a 24-well dish at 4×10^4 cells/well, and the culture medium was replaced with DMEM culture medium free from FCS the next day. To the culture medium, solutions of hANP, hBNP, and hCNP (final concentration: ten-fold serial dilution from 1×10^−11 M to 1×10^−6 M, the same amount of physiological saline was used as a control) were separately added. After 10 minutes passed, 400 μL of cooled 70% ethanol (containing 0.1 N hydrochloric acid) was added, and ultrasonication was performed for a short time. The treated solution was lyophilized, and the cGMP level was measured using Cyclic GMP Assay kit (made by Yamasa Corp.).

[4] = tested on: mouse melanoma B16-F10; assay: Mouse tail vein injection metastasis test, mouse melanoma B16-F10; type: in vivo, mice; conditions: 2.5 μg/kg/min by subcutaneous osmotic pump, 2 weeks
Procedure: 6-week-old male […] mice were used (purchased from Japan SLC, Inc.). Mouse melanoma B16-F10 was purchased from ATCC, and cultured in DMEM (Life Technologies Corp.) containing 10% FCS under 5% CO2 at 37° C. The cells in a subconfluent state were treated with EDTA-trypsin, centrifuged, and then suspended in serum free DMEM so as to be 5×10^6 cells/mL. The melanoma cell suspension (100 μL/mouse, 5×10^5 cells) was injected to the tail vein of the mice. The osmotic pumps used were MODEL2002 (for 14-day administration) made by ALZET (Cupertino, Calif,.).
Mice into which an osmotic pump containing 0.9% physiological saline was subcutaneously implanted in the back were assigned to the control group. Similarly, an osmotic pump containing hANP prepared for administration at 0.5 μg/kg/min was subcutaneously implanted into each mouse in the ANP group, an osmotic pump containing mouse BNP prepared for administration at 0.5 μg/kg/min was subcutaneously implanted into each mouse in the BNP group, and an osmotic pump containing hCNP-22 prepared for administration at 2.5 μg/kg/min was subcutaneously implanted into each mouse in the CNP group. To the mice in the sildenafil group, sildenafil citrate at a dosage of 20 mg/kg was intraperitoneally administered once daily. […]

LKL-ANP: a mutant in which the amino acids at positions 10 to 12 of hANP are replaced with LKL (SLRRSSCFGLKLDRIGAQSGLGCNSFRY; ends and bridges not checked; cysteine pairing not given here; UniProt P01160 124-151, looked up, variant G10L R11K M12L)
ratio of suppression of EMT induced by TGF-β in terms of E-cad/Ncad [1]: 52.9%

hCNP6-22: peptide consisting of amino acids from position 6 to position 22 of SEQ ID NO: 7 (ring structure only) (CFGLKLDRIGSMSGLGC; disulfide 1-17 (inferred); listed as Homo sapiens)
GC-B agonist activity compared with hCNP-22 [2]: comparable to that of hCNP-22

hCNP: 22-amino acid CNP-22 of human origin, GLSKGCFGLK LDRIGSMSGL GC (SEQ ID NO: 7), GC-B agonist (GLSKGCFGLKLDRIGSMSGLGC; listed as Homo sapiens)
intracellular cGMP level [3]: did not show such increase | lung metastasis of melanoma (number of nodules) [4]: significantly suppressed

nesiritide [hBNP]
intracellular cGMP level [3]: increased the intracellular cGMP level of the A549 cells in a concentration-dependent manner
